Measured values published in paper PMC2219262 (The Journal of General Physiology, 1996).
“And” between values parts separate entries of the source, which are not always exact repeats. Equal values may be shown once. “Also recorded” adds a separate entry of the source. Read-outs that look alike come from different tables or passages of the source.

Tests used:
IK in GH3 cells = type: cell-based, rat; conditions: read-out: apparent KD for IK block
[1] = biological target: K+ current (IK), K channels (Doryteuthis opalescens, UniProt Q25376); type: cell-based, squid Loligo opalescens
K+ current (IK), K channels, sequence (Q25376 1-488): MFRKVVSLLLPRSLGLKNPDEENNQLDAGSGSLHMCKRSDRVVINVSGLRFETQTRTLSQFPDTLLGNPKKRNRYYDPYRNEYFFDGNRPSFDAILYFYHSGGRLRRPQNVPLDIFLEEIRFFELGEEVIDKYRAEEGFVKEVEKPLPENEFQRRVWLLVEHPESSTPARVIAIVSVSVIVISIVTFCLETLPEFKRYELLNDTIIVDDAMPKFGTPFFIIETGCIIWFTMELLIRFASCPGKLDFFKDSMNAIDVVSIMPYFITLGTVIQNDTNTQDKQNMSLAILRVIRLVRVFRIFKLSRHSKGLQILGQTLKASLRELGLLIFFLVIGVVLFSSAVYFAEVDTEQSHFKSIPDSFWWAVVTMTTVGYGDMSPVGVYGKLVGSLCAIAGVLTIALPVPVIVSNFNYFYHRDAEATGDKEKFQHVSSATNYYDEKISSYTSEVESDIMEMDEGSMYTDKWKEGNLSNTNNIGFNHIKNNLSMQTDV

Na+ current (INa) = Na+ current (INa) (Doryteuthis opalescens, UniProt Q25377); type: cell-based, squid Loligo opalescens
Na+ current (INa), sequence (Q25377 1-1784): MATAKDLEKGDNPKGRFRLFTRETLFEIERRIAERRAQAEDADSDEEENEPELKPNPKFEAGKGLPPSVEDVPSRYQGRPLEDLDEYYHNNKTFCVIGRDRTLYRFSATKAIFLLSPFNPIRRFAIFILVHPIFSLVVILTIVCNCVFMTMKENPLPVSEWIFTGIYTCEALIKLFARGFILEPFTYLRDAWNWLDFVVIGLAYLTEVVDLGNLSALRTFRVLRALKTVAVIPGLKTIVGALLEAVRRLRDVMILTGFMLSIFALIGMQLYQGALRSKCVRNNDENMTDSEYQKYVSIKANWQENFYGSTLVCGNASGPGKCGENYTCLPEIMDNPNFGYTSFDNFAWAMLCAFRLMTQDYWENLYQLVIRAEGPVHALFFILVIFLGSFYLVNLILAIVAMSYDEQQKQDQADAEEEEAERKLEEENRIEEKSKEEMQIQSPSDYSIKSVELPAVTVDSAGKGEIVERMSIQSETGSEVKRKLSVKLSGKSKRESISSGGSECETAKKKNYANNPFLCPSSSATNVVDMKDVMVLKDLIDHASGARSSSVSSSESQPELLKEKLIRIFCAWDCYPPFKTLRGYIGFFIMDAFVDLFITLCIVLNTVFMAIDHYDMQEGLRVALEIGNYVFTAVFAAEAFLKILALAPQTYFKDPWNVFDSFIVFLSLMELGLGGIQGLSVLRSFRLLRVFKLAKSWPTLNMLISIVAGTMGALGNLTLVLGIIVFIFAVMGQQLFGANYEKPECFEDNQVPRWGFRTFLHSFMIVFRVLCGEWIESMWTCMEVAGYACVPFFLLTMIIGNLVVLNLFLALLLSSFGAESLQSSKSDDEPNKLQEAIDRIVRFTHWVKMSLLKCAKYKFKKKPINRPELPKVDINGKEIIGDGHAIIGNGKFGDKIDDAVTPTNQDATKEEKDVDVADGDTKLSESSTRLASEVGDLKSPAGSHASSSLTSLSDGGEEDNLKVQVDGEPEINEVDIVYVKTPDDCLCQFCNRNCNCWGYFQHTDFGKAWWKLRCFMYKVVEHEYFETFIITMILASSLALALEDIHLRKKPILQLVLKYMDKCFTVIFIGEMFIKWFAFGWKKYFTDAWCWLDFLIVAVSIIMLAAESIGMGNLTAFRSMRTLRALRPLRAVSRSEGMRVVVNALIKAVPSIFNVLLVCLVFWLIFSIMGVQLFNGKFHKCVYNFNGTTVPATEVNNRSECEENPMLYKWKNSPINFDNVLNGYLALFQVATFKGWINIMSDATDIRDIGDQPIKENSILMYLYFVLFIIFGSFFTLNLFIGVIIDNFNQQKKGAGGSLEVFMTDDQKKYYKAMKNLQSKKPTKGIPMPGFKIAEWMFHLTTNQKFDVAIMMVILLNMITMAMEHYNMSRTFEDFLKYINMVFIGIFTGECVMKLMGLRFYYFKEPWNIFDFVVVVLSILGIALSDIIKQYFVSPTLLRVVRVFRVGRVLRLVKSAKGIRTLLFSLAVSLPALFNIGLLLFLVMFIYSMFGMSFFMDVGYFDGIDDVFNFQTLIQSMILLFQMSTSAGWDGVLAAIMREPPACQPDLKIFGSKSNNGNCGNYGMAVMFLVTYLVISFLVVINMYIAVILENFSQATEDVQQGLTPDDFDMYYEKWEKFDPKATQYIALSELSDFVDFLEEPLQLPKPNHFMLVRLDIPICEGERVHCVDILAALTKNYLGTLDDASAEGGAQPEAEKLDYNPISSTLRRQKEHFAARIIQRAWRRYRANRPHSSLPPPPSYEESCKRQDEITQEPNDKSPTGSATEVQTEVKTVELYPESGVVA

Ca2+ current (ICa) = type: cell-based, squid Loligo opalescens
pKa of methadone = type: physicochemical; conditions: implied by pKa
[2] = ref Kaufman et al., 1975; cited from earlier work
[3] = Fig. 12 A: 100 μM, +60 mV, 10K//100K, model C
[4] = Fig. 4: 100 μM, +80 mV, 100K//200K
[5] = Fig. 12 B: 10 °C, 100 μM, +60 mV, 10K//50K
[6] = Fig. 12 B: 20 °C, 100 μM, +60 mV, 10K//50K

For `CCC(=O)O[C@](Cc1ccccc1)(c1ccccc1)[C@H](C)CN(C)C` [propoxyphene], the Kd (IK in GH3 cells) was 31 µM and ~30 µM.

With `CCC(=O)C(C[C@H](C)N(C)C)(c1ccccc1)c1ccccc1` [(+)methadone] the “rate of block (K)” value [1, 3] was 2.3 ms-1 mM-1 and the “rate of unblock (L)” value [1, 3] was 0.142 ms-1.

In the case of `CN1CC[C@]23c4c5ccc(O)c4O[C@H]2[C@@H](O)C=C[C@H]3[C@H]1C5` [morphine], the “effect on IK” value ([1]; 350 μM, +30 mV) is reported as “no detectable effect”, the “effect on INa” value (Na+ current (INa); 350 μM, data not shown) is reported as “no detectable effect” and the “effect on ICa” value (Ca2+ current (ICa); 350 μM, data not shown) is reported as “no detectable effect”.

With `CCC(=O)C(C[C@@H](C)N(C)C)(c1ccccc1)c1ccccc1` [(-)methadone] the “factor of increase of rate of block (K) from 10 to 20 °C” value [1] was 2.1, the “steady state IK as % of control” value ([1]; 100 μM, 25-ms depolarization to +80 mV, 100K//200K) was 27% and the “rate of block (K)” value [1, 4] was 2.6 ms-1 mM-1. For the same molecule, the “rate of unblock (L)” value [1, 4] was 0.096 ms-1, the “rate of block (K)” value [1, 3] was 2.2 ms-1 mM-1 and the “rate of unblock (L)” value [1, 3] was 0.062 ms-1. The “rate of block (K)” value [1, 5] was 1.5 ms-1 mM-1, the “rate of unblock (L)” value [1, 5] was 0.060 ms-1 and the “rate of block (K)” value [1, 6] was 3.2 ms-1 mM-1. For the same molecule, the “rate of unblock (L)” value [1, 6] was 0.084 ms-1.

For (±)methadone, the “use-dependent effect on peak INa” value (Na+ current (INa); 50 μM, repetitive depolarization to +10 mV at 4 Hz) was “no detectable effect” and the “use-dependent reduction in peak INa amplitude” value (Na+ current (INa); 50 μM, repetitive depolarization to +70 mV, 5-ms pulses at 4 Hz, Hp -80 mV) was 20%.

In the case of `CCC(=O)C(CC(C)N(C)C)(c1ccccc1)c1ccccc1` (centres unmarked) [methadone], the “ICa block at small depolarizations” value (Ca2+ current (ICa); -10 and -20 mV, 200 and 500 μM methadone) is listed as “Little or no block”, the “fraction of drug molecules charged at physiological pH” value (pKa of methadone) is listed as over 99% and the pKa [2] is listed as 9.64.

With `CCC(=O)C(CC(C)[N+](C)(C)C)(c1ccccc1)c1ccccc1.[I-]` (centres unmarked) [N-methyl-methadone] the “effect on IK when applied externally” value ([1]; 1 mM external) was “without effect; also recorded: no effect”, the “effect of changes in external pH on IK block” value ([1]; internally applied, data not shown) was “do not affect” and the “effect on INa when applied externally” value (Na+ current (INa); 1 mM external) was “no effect”. The “effect on ICa when applied externally” value (Ca2+ current (ICa); 1 mM external) was “no effect”.

In the case of `C=CCN1CC[C@]23c4c5ccc(O)c4O[C@H]2C(=O)CC[C@@]3(O)[C@H]1C5` [naloxone], the “effect on the ability of methadone to block IK” value ([1]; data not shown) is reported as “did not prevent”.
